Laboratory results as given in patent US20210346336A1, “FURAN DERIVATIVES AS BROMODOMAIN INHIBITORS” (GlaxoSmithKline Intellectual Property (No.2) Limited, priority 2018, published 2021).

Assays:
BRD4 BD2 = biological target: T1, BRD4 BD2 (Homo sapiens, UniProt O60885, Y97A); test: BRD4 BD2 TR-FRET competition assay (mutant tandem bromodomain); type: binding; conditions: read-out: pIC50 in the BRD4 BD2 assay (converted)
T1 construct: BRD4 (1-477) (Y97A) and (Y390A); made in house; host or cells: E. coli (pET15b vector)
Experimental: Bromodomain binding was assessed utilising a time resolved fluorescent resonance energy transfer (TR-FRET) competition assay. To enable this approach a known, high affinity, pan-BET interacting small molecule was labelled with Alexa Fluor® 647, which is a far-red-fluorescent dye (Reference Compound X). Reference Compound X acts as a reporter of bromodomain binding and is the acceptor fluorophore component of the TR-FRET pair. Europium chelate, conjugated to an anti-6*His antibody, was utilised as the donor fluorophore in the TR-FRET pair. […] A TR-FRET signal is generated when the donor and acceptor fluorophores are in close proximity, between 20-80 Å, which is enabled in this assay by binding of Reference Compound X to the bromodomain protein.
Assay Principle: In order to generate a TR-FRET signal, donor fluorophore is excited by a laser at λ337 nm, which subsequently leads to emission at λ618 nm. If the acceptor fluorophore is in close proximity then energy transfer can occur, which leads to emission of Alexa Fluor® 647 at λ665 nm. In the presence of competitor compound, Reference Compound X can be displaced from binding to the bromodomain. If displacement occurs, the acceptor fluorophore is no longer in proximity to the donor fluorophore, which prevents fluorescent energy transfer and, subsequently, a loss of Alexa Fluor®647 emission at λ665 nm.
(§1) The competition of the compounds of formula (I) with Reference Compound X for binding to the BET family (BRD2, BRD3, BRD4 and BRDT) was assessed using protein truncates spanning both bromodomain 1 (BD1) and bromodomain 2 (BD2). In order to monitor differential binding to either BD1 or BD2, single residue mutations of key tyrosines to alanine were made in the acetyl lysine binding pockets. To validate this approach, a double residue mutant tandem domain protein was produced for each of the BET family members. Utilising a Fluorescence Polarisation approach, binding affinities for each of the single and double mutants for Reference Compound X were determined.
Final purification was completed by Superdex 200 prep grade size exclusion column. Purified protein was stored at −80° C. in 20 mM HEPES pH 7.5 and 100 mM NaCl.
Protocol for Bromodomain BRD2, 3, 4 and T, BD1+BD2 mutant TR-FRET competition assays: All assay components were dissolved in an assay buffer composing of 50 mM HEPES pH7.4, 50 mM NaCl, 5% Glycerol, 1 mM DTT and 1 mM CHAPS. […] The solution containing bromodomain and Reference Compound X was added to dose response dilutions of test compound or DMSO vehicle (a maximum of 0.5% DMSO is used in this assay) in Greiner 384 well black low volume microtitre plates and subsequently incubated for 30 minutes at rt. An equal volume of 3 nM of anti-6*His Europium chelate was added to all wells, followed by a further 30 minute incubation at rt. TR-FRET was detected using a Perkin Elmer Multimode plate reader, by exciting the donor fluorophore at λ337 nm and subsequently, after a delay of 50 μsecs, measuring emission of the donor and acceptor fluorophores at λ615 nm and λ665 nm, respectively. In order to control these assays, 16 replicates each of uninhibited (DMSO vehicle) and inhibited (10*IC50 concentrations of Example 11 of WO 2011/054846A1) TR-FRET assays were included on every microtitre plate.
cA four parameter curve fit of the following form was then applied:
y=a+((b−a)/(1+(10^x/10^c)^d) • Where ‘a’ is the minimum, ‘b’ is the […], ‘c’ is the pIC50 and ‘d’ is the […].
Those of skill in the art will recognise that in vitro binding assays and cell-based assays for functional activity are subject to experimental variability. Accordingly, it is to be understood that the pIC50 values given below are exemplary only. pIC50 values are expressed as log10 units.

[1] = system: BET family (BRD2, BRD3, BRD4 and BRDT) tandem bromodomain proteins; test: Fluorescence Polarisation binding of Reference Compound X to single and double mutant tandem BET proteins; set-up: species or system Human
Experimental: as §1, with “determined. […] The affinities of the single mutated bromdomain tandem proteins for Reference Compound X were equi-potent with the corresponding non-mutated BET protein. […] In the TR-FRET competition assay, Reference Compound X is used at a concentration that is equivalent to the Kd for the non-mutated bromodomain, which ensures that no binding at the mutated bromodomain is detected.” for “determined.”
Protein production: Recombinant Human Bromodomains [(BRD2 (1-473) (Y113A) and (Y386A), BRD3 (1-435) (Y73A) and (Y348A) BRD4 (1-477) (Y97A) and (Y390A) and BRDT (1-397) (Y66A) and (Y309A)] were expressed in E. coli cells (in pET15b vector for BRD2/3/4 and in pET28a vector for BRDT) with a 6-His tag at the N-terminal. The His-tagged Bromodomain pellet was resuspended in 50 mM HEPES (pH7.5), 300 mM NaCl, 10 mM imidazole & 1 μL/mL protease inhibitor cocktail and extracted from the E. coli cells using sonication and purified using a nickel sepharose high performance column, the proteins were washed and then eluted with a linear gradient of 0-500 mM imidazole with buffer 50 mM HEPES (pH7.5), 150 mM NaCl, 500 mM imidazole, over 20 column volumes. Final purification was completed by Superdex 200 prep grade size exclusion column. Purified protein was stored at −80° C. in 20 mM HEPES pH 7.5 and 100 mM NaCl. Protein identity was confirmed by peptide mass fingerprinting and predicted molecular weight confirmed by mass spectrometry.

Row | IC50 (BRD4 BD2) [µM] | Compound | other results
1 | 1 to 10 | CNC(=O)c1cc(C(=O)N[C@H]2CC[C@H](O)CC2)c([C@@H](OC)c2ccccc2)o1 (single isomer, unassigned) [Example 108, N^4-((1r,4S)-4-Hydroxycyclohexyl)-5-((S*)-methoxy(phenyl)methyl)-N^2-methylfuran-2,4-dicarboxamide] | 
2 | 1 to 10 | CNC(=O)c1cc(C(=O)N[C@H]2CC[C@H](O)CC2)c([C@@H](C)c2ccc(OC)c(Cl)c2)o1 (single isomer, unassigned) [Example 95, 5-((S*)-1-(3-Chloro-4-methoxyphenyl)ethyl)-N^4-((1r,4S)-4-hydroxycyclohexyl)-N^2-methylfuran-2,4-dicarboxamide] | 
3 | 1 to 10 | CNC(=O)c1cc(C(=O)N[C@H]2CC[C@H](O)CC2)c([C@@H](OC)c2cccc(Cl)c2)o1 (single isomer, unassigned) [Example 93, 5-((S*)-(3-Chlorophenyl)(methoxy)methyl)-N^4-((1r,4S)-4-hydroxycyclohexyl)-N^2-methylfuran-2,4-dicarboxamide] | 
4 | 1 to 10 | CNC(=O)c1cc(C(=O)N[C@H]2CC[C@H](O)CC2)c([C@@H](C)c2ccc(OC)c(OC)c2)o1 (single isomer, unassigned) [Example 106, 5-((S*)-1-(3,4-Dimethoxyphenyl)ethyl)-N^4-((1r,4S)-4-hydroxycyclohexyl)-N^2-methylfuran-2,4-dicarboxamide] | 
5 | 1 to 10 | CNC(=O)c1cc(C(=O)N[C@H]2CC[C@H](O)CC2)c([C@@H](C)c2cc(Cl)cc(OC)c2)o1 (single isomer, unassigned) [Example 94, 5-((S*)-1-(3-Chloro-5-methoxyphenyl)ethyl)-N^4-((1r,4S)-4-hydroxycyclohexyl)-N^2-methylfuran-2,4-dicarboxamide] | 
6 |  | COc1ccc2c(c1)C(c1ccc(Cl)cc1)=N[C@@H](CC(=O)NCCCCCNC(=O)CCCCCC1(C)/C(=C/C=C/C=C/C3=[N+](CCCCS(=O)(=O)O)c4ccc(S(=O)(=O)O)cc4C3(C)C)N(CCCCS(=O)(=O)[O-])c3ccc(S(=O)(=O)O)cc31)c1nnc(C)n1-2 (stereo partly drawn) [Reference Compound X] | affinities of the single mutated bromdomain tandem proteins ([1]; compared with the corresponding non-mutated BET protein): equi-potent; reduction in Kd ([1]; double mutant tandem proteins in comparison to non mutated, wild type tandem BET proteins): > 1000 fold; reduction of the Kd of the interaction between the mutated bromodomain and Reference Compound X ([1]; single mutations of Tyrosine to Alanine): > 1000 fold
7 | 1 to 10 | CNC(=O)c1cc(C(=O)NCC2CC2)c([C@@H](C)c2ccccc2)o1 [Example 104, (S)-N^4-(Cyclopropylmethyl)-N^2-methyl-5-(1-phenylethyl)furan-2,4-dicarboxamide] | 
8 | 1 to 10 | CNC(=O)c1cc(C(=O)N[C@H]2[C@@H]3COC[C@@H]32)c([C@H](C)c2cccc(Cl)c2)o1 (single isomer, unassigned) [Example 89, N^4-((1R,5S,6r)-3-Oxabicyclo[3.1.0]hexan-6-yl)-5-((R*)-1-(3-chlorophenyl)ethyl)-N^2-methylfuran-2,4-dicarboxamide] | 
9 | 1 to 10 | CNC(=O)c1cc(C(=O)N[C@H]2CC[C@H](O)CC2)c([C@@H](C)c2ccc(OC)cc2)o1 (single isomer, unassigned) [Example 102, N^4-((1r,4S)-4-Hydroxycyclohexyl)-5-((S*)-1-(4-methoxyphenyl)ethyl)-N^2-methylfuran-2,4-dicarboxamide] | 
10 | 1 to 10 | CNC(=O)c1cc(C(=O)N[C@H]2CC[C@H](O)CC2)c([C@@H](C)c2ccc(C)c(Cl)c2)o1 (single isomer, unassigned) [Example 98, 5-((S*)-1-(3-Chloro-4-methylphenyl)ethyl)-N^4-((1r,4S)-4-hydroxycyclohexyl)-N^2-methylfuran-2,4-dicarboxamide] | 
11 | 1 to 10 | CNC(=O)c1cc(C(=O)N[C@H]2[C@@H]3COC[C@@H]32)c([C@H](CC#N)c2cccc(Cl)c2)o1 (single isomer, unassigned) [Example 88, N^4-((1R,5S,6r)-3-Oxabicyclo[3.1.0]hexan-6-yl)-5-((R*)-1-(3-chlorophenyl)-2-cyanoethyl)-N^2-methylfuran-2,4-dicarboxamide] | 
12 | 1 to 10 | CNC(=O)c1cc(C(=O)N[C@H]2C[C@@H]2C)c(C(C)c2ccccc2)o1 (single isomer, unassigned) [Example 96, N^2-methyl-N^4-((1S,2S)-2-Methylcyclopropyl)-5-((S*)-1-phenylethyl)furan-2,4-dicarboxamide] | 
13 | 1 to 10 | CNC(=O)c1cc(C(=O)N[C@H]2CC[C@H](O)CC2)c([C@@H](CO)c2ccccc2)o1 (single isomer, unassigned) [Example 101, 5-((R*)-2-Hydroxy-1-phenylethyl)-N^4-((1r,4R)-4-hydroxycyclohexyl)-N^2-methylfuran-2,4-dicarboxamide] | 
